Test [1] deals with T1, IGS4B (Homo sapiens, UniProt Q9GZQ4, A395T/F315L/M388V/P383L/S298T).
T1 construct: expressed in transfected cells; host or cells: CHOGα16 (CHO cells stably expressing Gα16, Molecular Devices), transfected with IGS4-pcDNA3.1
Briefly: FLIPR intracellular calcium mobilisation in CHOGα16-IGS4 cells (IGS4B). The test is classed as cell-based. The note with it: for maximal activation of IGS4B: comparison among the three neuromedin U isoforms; for IGS4-mediated calcium mobilisation in the FLIPR assay: range 10^−6–10^−12 M, IGS4B. How it is done:
(§1) A. Method and Materials for IGS-4 Transfected CHOGα16IGS4 cells.
(§2) The following materials were used in the experiments: Vector containing IGS4-DNA sequence (IGS4-pcDNA3.1); SuperFect Transfection Reagent (Qiagen): Nut-Mix F12 (Gibco) with 10% FCS, 0.028 mg/ml Gentamycin (Gibco); 0.22 mg/ml Hygromycin (Gibco).
(§3) Materials used for clone selection: Nut-Mix F12 with 10% FCS; 0.028 mg/ml Gentamycin; 0.22 mg/ml Hygromycin and 0.55 mg/ml Geneticin (Gibco).
The following method was applied: Transfection with SuperFect Transfection Reagent was carried out as described by the manufacturer (Qiagen). Cells were plated in 24-well plates to 50% confluence. Per well […] plasmid-DNA with 1 μl SuperFect Transfection Reagent was added. After 24 hours the medium was changed and transfected cell clones were selected by Geneticin-containing selection-medium. IGS4 expressing cell clones were characterized by RT-PCR and Northern Blot.
B. Method and Materials for FLIPR-Assay.
The method was performed as follows: Cells were seeded 24 hours or 48 hours prior to the experiment into black wall microplates. The cell density was […] cells/well for 48 hour incubation and […] cells/well for 24 hour incubation. All steps were done under sterile conditions.
In order to observe changes in intracellular calcium levels, cells must be ‘loaded’ with a calcium-sensitive fluorescent dye. This dye, called FLUO-4 (Molecular Probes) is excited at 488 nm, and emits light in the 500–560 nm range, only if a complex with calcium is formed. The dye was used at 4 μM final concentration. Pluronic acid was added to increase dye solubility and dye uptake into the cells. Probenicid, an anion exchange protein inhibitor, was added to the dye medium to increase dye retention in the cells.
The method was worked as follows: The 2 mM stock of dye was mixed with an equal volume of 20% (w/v) pluronic acid immediately before adding to the loading-Buffer. The growth-medium was aspirated out of the well without disturbing the confluent cell layer. 100 μl loading medium was dispensed into each well using a Multidrop (Labsystems). Cell were incubated in a 5% CO2, 37° C. incubator for 30 minutes. In order to calculate the, background fluorescence, some wells were not dye loaded. The background fluorescence in these wells results from autofluorescence of the cells. After dye loading, cell were washed three times with Wash-Buffer (automated Denley cell washer) to reduce the basal fluorescence to 20.000–25.000 counts above background. 100 l buffer was added and cell were incubated at 37° C. till start of the experiment. […]
The resulting CHOGα16-IGS4 cells were functionally screened on a Fluorometric Imaging Plate Reader (FLIPR) to measure mobilisation of intracellular calcium in response to putative peptide ligands. […]
On the technique in general: Calcium flux is commonly read through the fluorescence of an indicator in the cells.

For test [2], the target named is T2, IGS4A (Homo sapiens, UniProt Q9GZQ4, A395T).
T2 construct: expressed in transfected cells; host or cells: CHOGα16 (CHO cells stably expressing Gα16, Molecular Devices), transfected with IGS4-pcDNA3.1
T2 sequence (Q9GZQ4 whole entry A395T): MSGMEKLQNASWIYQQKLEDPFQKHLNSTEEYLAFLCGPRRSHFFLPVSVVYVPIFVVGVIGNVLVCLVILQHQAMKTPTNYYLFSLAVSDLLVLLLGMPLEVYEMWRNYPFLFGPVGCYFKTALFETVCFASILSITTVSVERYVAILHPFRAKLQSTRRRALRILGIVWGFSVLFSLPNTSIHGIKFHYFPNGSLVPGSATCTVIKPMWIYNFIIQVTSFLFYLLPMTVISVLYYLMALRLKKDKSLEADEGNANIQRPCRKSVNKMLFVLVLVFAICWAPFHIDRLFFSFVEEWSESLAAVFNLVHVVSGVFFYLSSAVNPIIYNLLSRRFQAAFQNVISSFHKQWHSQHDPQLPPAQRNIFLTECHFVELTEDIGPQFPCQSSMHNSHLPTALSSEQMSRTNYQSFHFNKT
Nature of the test: FLIPR intracellular calcium mobilisation in CHOGα16-IGS4 cells (IGS4A). The test is classed as cell-based. The following applies: range 10^−6–10^−12 M. How it is done:
as §1, §2, §3
The following method was applied: Transfection with SuperFect Transfection Reagent was carried out as described by the manufacturer (Qiagen). Cells were plated in 24-well plates to 50% confluence. Per well […] plasmid-DNA with 1 μl SuperFect Transfection Reagent was added. After 24 hours the medium was changed and transfected cell clones were selected by Geneticin-containing selection-medium. […]
The method was worked as follows: The 2 mM stock of dye was mixed with an equal volume of 20% (w/v) pluronic acid immediately before adding to the loading-Buffer. […] In order to calculate the, background fluorescence, some wells were not dye loaded. The background fluorescence in these wells results from autofluorescence of the cells. After dye loading, cell were washed three times with Wash-Buffer (automated Denley cell washer) to reduce the basal fluorescence to 20.000–25.000 counts above background. […]

The test system of test [3] is IGS4. Briefly: Basal intracellular cAMP in CHOGα16-IGS4 cells. Format: cell-based, human. The note with it: 1 and 10 μM; data not shown.

T1 sequence (Q9GZQ4 whole entry S298T/F315L/P383L/M388V/A395T): as the sequence (Q9GZQ4 whole entry A395T) above, with S298T, F315L, P383L, M388V counted along it

Regarding neuromedin U-8, in test [1], the “maximal activation of IGS4B” value was “same maximal activation” and the “IGS4-mediated calcium mobilisation in the FLIPR assay” value (“IGS4-mediated calcium mobilisation” below) is “induced specific IGS4-mediated calcium mobilisation”. Moreover, the “IGS4-mediated calcium mobilisation” value in test [2] is on record as “induced specific IGS4-mediated calcium mobilisation”. The “basal levels of intracellular cAMP” value in test [3] is “not modulated”.

For neuromedin U-25, in test [1], the “maximal activation of IGS4B” value is on record as “same maximal activation” and the “IGS4-mediated calcium mobilisation” value was “induced specific IGS4-mediated calcium mobilisation”. Further, the “IGS4-mediated calcium mobilisation” value in test [2] is listed as “induced specific IGS4-mediated calcium mobilisation”.

Source of the values: patent publication US7151165B2, “Antibodies immunospecific for a novel human G-protein coupled receptor family” (priority 1999, dated 2006).
